Tests used:
TCR-positive cells = assay: Annexin staining of TCR-positive cells (flow cytometry, cell death); assay type: cell-based, human; conditions: PHA 5 μg/ml plus 50 μg/ml; PHA alone 67%
Description: (§1) After this incubation, PHA was added to give a final concentration of 5 μg/ml, and the cells were incubated for an additional 72 hours at 37° C., 5% CO2. All cultures were performed in triplicate. Cells were then removed by centrifugation at 1000 rpm for 10 minutes.
The cells were further analyzed by flow cytometry Annexin was used to determine populations of dead or dying cells. Anti-CD69 antibody was used to establish the level of cellular activation. Antibody to T-cell receptor αβ (TCR) was also used. Recombinant Annexin 5 (PE and FITC conjugates) and the antibodies were all purchase from Caltag (Burlingham, Calif.) and used following the manufacturer's recommendations.

erythropoietin (EPO) = assay: Erythropoietin (EPO) release from HepG2 cells (ELISA); assay type: cell-based, human; conditions: 24 hours
Description: HepG2 is a human hepatic cancer cell line, which was obtained from ATCC. HepG2 cells were grown to confluence in 25 cm^2 flasks in IMDM medium containing 10% FCS. Then, the cells were trypsinized as follows. The medium in each flask was aspirated and replaced with 5 ml of 0.025% trypsin/EDTA (Cambrex). The cells were monitored on a microscope until they no longer adhered to the flasks. Then, 5 ml of trypsin neutralizing solution (TNS) (Cambrex) were added to each flask to stop the reaction. The cell suspension was centrifuged at 1000 rpm for 10 minutes, and the supernatants were aspirated. The cells were reconstituted in fresh medium and counted. Then, 4 ml of the cell suspension in medium containing at 1.22×10^6 cells/ml were mixed with an additional 1 ml of medium. Next, 0.5 ml/well of the resulting cell suspension was added to wells in a 24-well culture plate (about 500,000 cells/well). The cells were treated as indicated in Table 5 below and incubated for 24 hours at 37° C., with or without 5% CO2. The supernatants were removed from the wells and centrifuged to remove debris. Next, the supernatants were analyzed for erythropoietin (EPO) production. EPO was measured by ELISA using a kit obtained from R & D Systems, Minneapolis, Minn. (catalog no. DE900) following the manufacturer's instructions.

IL-8 [1] = assay: IL-8 production by CD3/CD28-activated TRiPS cell line (ELISA); assay type: cell-based, human; conditions: 15 μg/ml; CD3/CD28 Dynabeads, 24 hours
[2] = tested on: Jurkat T-lymphocyte leukemia cell line; assay: Jurkat cell viability (ETH-D1 / calcein AM); assay type: cell-based; conditions: Jurkat cells, 72 hours, control 20.85% ± 1.42%
Description: The Jurkat T-lymphocyte leukemia cell line was obtained from American Type Culture Collection (ATCC), Rockville, Md. (catalog no. TIB-152). Jurkat cells, at 1×10^5 cells/ml, were cultured at 37° C. and 5% CO2 in IMDM medium (ATCC) with 10% FCS for 72 hours with 7.5 μg/ml or 15 μg/ml of the compound of formula II (Cpd II). Following the incubation, the cells were washed with Hepes buffered saline, split into three equal volumes, and then incubated with 5 μM ethidium bromide dimer-1 (ETH-D1) (obtained from Molecular Probes) and 5 μM calcein AM solution (obtained from Promega) for one hour at 37° C. and 5% CO2 in 96-well culture plates to assay for cell viability. The fluorescence in each well was measured using a plate reader at excitation/emission 485/530 nm and 530/645 nm. Relative percentage of dead to live cells was calculated by dividing ETH-D1 fluorescence by calcein AM fluorescence.

IL-8 [3] = assay: IL-8 release by LPS-stimulated HUVECs (ELISA); assay type: cell-based, human; conditions: 15 μg/ml
Description: Passage 4 HUVECs, lot number 9713, were put into the wells of a 48-well tissue culture plate at 20,000 cells/well in 500 μl of EGM-2 complete medium (but without serum or ascorbate) supplemented with ITSS (insulin, transferrin and sodium selenite) (obtained from Sigma). Also, passage 4 HUVECs, human source lot number 7016 (obtained from ATCC), were put into the wells of a 48-well tissue culture plate at 20,000 cells/well in 500 μl of EGM-2 complete medium (but without serum or ascorbate) supplemented with ITSS. The following additives were added to the cells: water (vehicle control) and 15 μg/ml of the compound of formula II (Cpd II). After incubation for 1 hour at 37° C. and 5% CO2, LPS was added to give a final concentration of 200 ng/ml, and the cells were incubated overnight at 37° C. and 5% CO2. After this incubation, the supernatants were collected, and the amount of IL-8 in the supernatants determined by ELISA as described in Example 4.

TNFα = TNFα release by PHA-stimulated PBL (ELISA); assay type: cell-based, human; conditions: Example 3, GR191 PBL, Cpd II 15 and 50 μg/ml, Dex 10 μM, 72 hours, FIG. 7
Description: as §1
The TNFα ELISA was performed as described in Example 2 using matched pair antibodies from Pierce Endogen (2 μg/ml for the coating antibody and 250 ng/ml for the second antibody).

RAP-1 = RAP-1 activation pulldown assay in TRiPS cells; assay type: cell-based, human; conditions: 15 μg/ml
Description: Day 10 TRiPS cells, 1×10^6, were incubated with 15 μg/ml of the compound of formula II (Cpd II) for 1 hour at 37° C. Then, the cells were incubated with CD3/CD28 beads (1 μl per 100,000 cells) (obtained from Dynal) for 10 minutes at 37° C. The cells were then lysed with a mild buffer (supplied with Pierce EZ-Detect activation kit described below) to produce cell extracts. Protein concentrations of the resulting extracts were determined by bicinchoninic acid (BCA) assay (Pierce) and placed on ice for immediate use.
Pulldown assays were performed using Pierce EZ-Detect activation kits according to the manufacturer's instructions utilizing GST-RAF-1-RBD and GST-RalGDS-RBD for Ras and RAP-1 respectively. Briefly, 400 μg total protein from each extract was combined with recombinant protein and glutathione resin and incubated at 4° C. for one hour with gentle shaking The resin was then washed to remove unbound protein and the activated Ras and RAP-1 proteins were removed by boiling in the presence of SDS-PAGE loading dye containing reducing agent. Ras and RAP-1 western blots were performed to visualize the proteins using antibodies supplied with the kit. Densitometry of the X-ray films was done by scanning and computer analysis.

SMILES: COC(=O)C(c1ccc(-c2ccccc2)cc1)C1CCCCN1 (centres unmarked) [Cpd II]
- Annexin staining of TCR-positive cells (cell death) (TCR-positive cells): 87%
- Mean Units/ml EPO (erythropoietin (EPO); HepG2, hypoxia (5% CO2), Cpd II 15 μg/ml, LY 294002 25 μM, hypoxia alone 108.39 ± 2.81): 71.60 ± 2.01 Units/ml
- release of EPO from the HepG2 cells (erythropoietin (EPO); HepG2, hypoxia, 15 μg/ml): significantly inhibited the release of EPO
- IL-8 production by the TRiPS cell line (IL-8 [1]): no effect
- Relative Percentage Dead/Live ([2]; 7.5 μg/ml): 16.74% ± 2.15%
- Relative Percentage Dead/Live ([2]; 15 μg/ml): 40.79% ± 1.81%
- IL-8 (pg/ml) (IL-8 [3]; 7016 HUVECs, LPS 200 ng/ml overnight, LPS only 53.3): Below detection
- IL-8 release (IL-8 [3]; 7016 HUVECs, LPS 200 ng/ml): complete eliminated IL-8 release
- decrease of IL-8 release (IL-8 [3]; 9713 HUVECs, LPS 200 ng/ml): 90%
- release of TNFα from PHA-stimulated PBL (TNFα): significantly inhibited the release of TNFα
- inhibition of RAP-1 (RAP-1): appeared to inhibit RAP-1
